# In patent EP0292291B1, “Linear and cyclic analogs of alpha-msh fragments with extraordinary potency” (UNIVERSITY PATENTS, INC., priority 1987, dated 1988):
# Like-named read-outs stand apart in the source and are kept apart here. Positions of bridges follow the written chain, without caps; N, C: chain ends. Non-standard residues stand in square brackets, D forms with d. Residues, ends and D or L forms follow the SMILES beside them. Nle = CCCC[C@H](N)C(=O)O; Dab = NCC[C@H](N)C(=O)O
# Tests used:
# Frog (Rana pipiens) Skin [1] = format: cell-based
# Description: (§1) Based upon the structural relationship of alpha-MSH (and its analogues and fragments) to its biological potency, using in vitro a frog skin bioassay system, the active site of alpha-MSH appears to be the common active core sequence suitably modified Ac-Met-Glu-His-Phe-Arg-Trp-Gly-NH₂. This fragment (Alpha-MSH₄₋₁₀) has been synthesized and tested for its melanocyte stimulating activity in frog skin and shown to be a weak agonist when compared to the native hormone. The amino acid exchanges in position 5(Glu) and 10(Gly) have not, previous to the making of the present invention, been investigated. […] The following table summarizes some of these studies.
# (§2) The biological potencies of alpha-MSH, the linear, and the cyclic analogues were determined by their ability to stimulate melanosome dispersion in vitro in the frog and lizard bioassays. These in vitro assays provide clear cut dose response curves (between 2.5 x 10⁻¹¹ and 4 x 10⁻¹⁰ M) and can detect minimal concentration of alpha-MSH of about 10⁻¹¹ M. The assays are based upon the centrifugal dispersion of melanosomes (melanin granules) within the dendritic processes of integumental dermal melanophores leading to darkening of the skin. All the test solutions were prepared via serial dilutions from a stock solution (10⁻⁴ M). The frogs (Rans pipiens) used in these evaluations were obtained from Kons Scientific, Germantown, WI, and the lizards (Anolis carolinensis) were from the Snake Farm, La Place, LA.
# [2] = system: Lizard (Anolis carolinensis) Skin; format: cell-based
# Description: as §1, §2
# Frog (Rana pipiens) Skin [3] = conditions: earlier studies, cited from earlier work; for Relative Potency Frog: relative to alpha-MSH = 1.0
# [4] = system: Lizard (Anolis carolinensis) Skin; conditions: relative to alpha-MSH = 1.0; earlier studies; cited from earlier work
# [5] = linear analogues, P = prolonged action
# [6] = linear analogues, relative to alpha-MSH = 1.0
# [7] = cyclic analogues, p = prolonged action
# [8] = cyclic analogues, relative to alpha-MSH = 1.0
Molecule,Residual Activity Frog (Frog (Rana pipiens) Skin [1]; [5]),Biological Potency Frog (Frog (Rana pipiens) Skin [1]; [6]),"Residual Activity Lizard [2, 5]","Biological Potency Lizard [2, 6]",other results
CCCC[C@H](NC(=O)[C@H](CO)NC(=O)[C@H](Cc1ccc(O)cc1)NC(=O)[C@H](CO)NC(C)=O)C(=O)N[C@@H](CCC(=O)O)C(=O)N[C@@H](Cc1c[nH]cn1)C(=O)N[C@H](Cc1ccccc1)C(=O)N[C@@H](CCCNC(=N)N)C(=O)N[C@@H](Cc1c[nH]c2ccccc12)C(=O)N[C@@H](CCCCN)C(=O)NCC(=O)N1CCC[C@H]1C(=O)N[C@H](C(N)=O)C(C)C [Analogue 1] (Ac-SYS[Nle]EH[dF]RWKGPV-NH2),P(+),6.0,P(-),8.0,
CCCC[C@H](NC(=O)[C@H](CO)NC(=O)[C@H](Cc1ccc(O)cc1)NC(=O)[C@H](CO)NC(C)=O)C(=O)N[C@@H](CC(=O)O)C(=O)N[C@@H](Cc1c[nH]cn1)C(=O)N[C@H](Cc1ccccc1)C(=O)N[C@@H](CCCNC(=N)N)C(=O)N[C@@H](Cc1c[nH]c2ccccc12)C(=O)N[C@@H](CCCCN)C(=O)NCC(=O)N1CCC[C@H]1C(=O)N[C@H](C(N)=O)C(C)C [Analogue 2] (Ac-SYS[Nle]DH[dF]RWKGPV-NH2),P(+),9.0,P(-),8.0,
CCCC[C@H](NC(C)=O)C(=O)N[C@@H](CCC(=O)O)C(=O)N[C@@H](Cc1c[nH]cn1)C(=O)N[C@H](Cc1ccccc1)C(=O)N[C@@H](CCCNC(=N)N)C(=O)N[C@@H](Cc1c[nH]c2ccccc12)C(=O)N[C@@H](CCCCN)C(=O)NCC(=O)N1CCC[C@H]1C(=O)N[C@H](C(N)=O)C(C)C [Analogue 3] (Ac-[Nle]EH[dF]RWKGPV-NH2),P(+),0.8,P(+),8.0,
CCCC[C@H](NC(C)=O)C(=O)N[C@@H](CC(=O)O)C(=O)N[C@@H](Cc1c[nH]cn1)C(=O)N[C@H](Cc1ccccc1)C(=O)N[C@@H](CCCNC(=N)N)C(=O)N[C@@H](Cc1c[nH]c2ccccc12)C(=O)N[C@@H](CCCCN)C(=O)NCC(=O)N1CCC[C@H]1C(=O)N[C@H](C(N)=O)C(C)C [Analogue 4] (Ac-[Nle]DH[dF]RWKGPV-NH2),P(+),1.0,P(+),10.0,
CCCC[C@H](NC(C)=O)C(=O)N[C@@H](CC(=O)O)C(=O)N[C@@H](Cc1c[nH]cn1)C(=O)N[C@H](Cc1ccccc1)C(=O)N[C@@H](CCCNC(=N)N)C(=O)N[C@@H](Cc1c[nH]c2ccccc12)C(=O)NCC(N)=O [Analogue 5],P(-),0.1,P(-),8.0,
CCCC[C@H](NC(C)=O)C(=O)N[C@@H](CCC(=O)O)C(=O)N[C@@H](Cc1c[nH]cn1)C(=O)N[C@H](Cc1ccccc1)C(=O)N[C@@H](CCCNC(=N)N)C(=O)N[C@@H](Cc1c[nH]c2ccccc12)C(=O)N[C@@H](CCCCN)C(N)=O [Analogue 6],P(-),0.2,P(-),8.0,
CCCC[C@H](NC(C)=O)C(=O)N[C@@H](CC(=O)O)C(=O)N[C@@H](Cc1c[nH]cn1)C(=O)N[C@H](Cc1ccccc1)C(=O)N[C@@H](CCCNC(=N)N)C(=O)N[C@@H](Cc1c[nH]c2ccccc12)C(=O)N[C@@H](CCCCN)C(N)=O [Analogue 7],,,P(-),8.0,
CCCC[C@H](NC(C)=O)C(=O)N[C@@H](CCC(=O)O)C(=O)N[C@@H](Cc1c[nH]cn1)C(=O)N[C@H](Cc1ccccc1)C(=O)N[C@@H](CCCNC(=N)N)C(=O)N[C@@H](Cc1c[nH]c2ccccc12)C(=O)N[C@@H](CCCN)C(N)=O [Analogue 8],P(-),0.6,P(-),8.0,
CCCC[C@H](NC(C)=O)C(=O)N[C@@H](CC(=O)O)C(=O)N[C@@H](Cc1c[nH]cn1)C(=O)N[C@H](Cc1ccccc1)C(=O)N[C@@H](CCCNC(=N)N)C(=O)N[C@@H](Cc1c[nH]c2ccccc12)C(=O)N[C@@H](CCCN)C(N)=O [Analogue 9],,0.9,P(-),10.0,
CCCC[C@H](NC(C)=O)C(=O)N[C@@H](CCC(=O)O)C(=O)N[C@@H](Cc1c[nH]cn1)C(=O)N[C@H](Cc1ccccc1)C(=O)N[C@@H](CCCNC(=N)N)C(=O)N[C@@H](Cc1c[nH]c2ccccc12)C(=O)N[C@@H](CCN)C(N)=O [Analogue 10] (Ac-[Nle]EH[dF]RW[Dab]-NH2),P(±),0.9,P(±),10.0,
CCCC[C@H](NC(C)=O)C(=O)N[C@@H](CC(=O)O)C(=O)N[C@@H](Cc1c[nH]cn1)C(=O)N[C@H](Cc1ccccc1)C(=O)N[C@@H](CCCNC(=N)N)C(=O)N[C@@H](Cc1c[nH]c2ccccc12)C(=O)N[C@@H](CCN)C(N)=O [Analogue 11],P(-),0.9,P(-),50.0,
CCCC[C@H](NC(C)=O)C(=O)N[C@@H](CC(=O)O)C(=O)N[C@@H](Cc1c[nH]cn1)C(=O)N[C@H](Cc1ccccc1)C(=O)N[C@@H](CCCNC(=N)N)C(=O)N[C@@H](Cc1c[nH]c2ccccc12)C(=O)N[C@@H](CN)C(N)=O [Analogue 12],P(-),0.2,P(-),8.0,
CCCC[C@H](NC(C)=O)C(=O)N[C@@H](CCC(=O)O)C(=O)N[C@@H](Cc1c[nH]cn1)C(=O)N[C@@H](Cc1ccccc1)C(=O)N[C@@H](CCCNC(=N)N)C(=O)N[C@@H](Cc1c[nH]c2ccccc12)C(=O)N[C@@H](CCCCN)C(N)=O [Analogue 13],P(+),0.001,P(-),0.08,
CCCC[C@H](NC(C)=O)C(=O)N[C@@H](CC(=O)O)C(=O)N[C@@H](Cc1c[nH]cn1)C(=O)N[C@@H](Cc1ccccc1)C(=O)N[C@@H](CCCNC(=N)N)C(=O)N[C@@H](Cc1c[nH]c2ccccc12)C(=O)N[C@@H](CCCCN)C(N)=O [Analogue 14],,,P(-),0.08,
CCCC[C@H](NC(C)=O)C(=O)N[C@H]1CCC(=O)NCCCC[C@@H](C(=O)NCC(=O)N2CCC[C@H]2C(=O)N[C@H](C(N)=O)C(C)C)NC(=O)[C@H](Cc2c[nH]c3ccccc23)NC(=O)[C@H](CCCNC(=N)N)NC(=O)[C@@H](Cc2ccccc2)NC(=O)[C@H](Cc2c[nH]cn2)NC1=O [Analogue 15] (Ac-[Nle]EH[dF]RWKGPV-NH2; lactam 2-7),,,,,"Biological Potency Frog (Frog (Rana pipiens) Skin [1]): 1.0; Residual Activity Frog (Frog (Rana pipiens) Skin [1]; [7]): p(+); Biological Potency Lizard [2]: 6.0; Residual Activity Lizard [2, 7]: p(+)"
CCCC[C@H](NC(C)=O)C(=O)N[C@H]1CCC(=O)NCCCC[C@@H](C(N)=O)NC(=O)[C@H](Cc2c[nH]c3ccccc23)NC(=O)[C@H](CCCNC(=N)N)NC(=O)[C@@H](Cc2ccccc2)NC(=O)[C@H](Cc2c[nH]cn2)NC1=O [Analogue 16],,,,,"Residual Activity Frog (Frog (Rana pipiens) Skin [1]; [7]): p(+); Biological Potency Frog (Frog (Rana pipiens) Skin [1]; [8]): 0.5; Residual Activity Lizard [2, 7]: p(+); Biological Potency Lizard [2, 8]: 9.0"
CCCC[C@H](NC(C)=O)C(=O)N[C@H]1CC(=O)NCCC[C@@H](C(N)=O)NC(=O)[C@H](Cc2c[nH]c3ccccc23)NC(=O)[C@H](CCCNC(=N)N)NC(=O)[C@@H](Cc2ccccc2)NC(=O)[C@H](Cc2c[nH]cn2)NC1=O [Analogue 18],,,,,"Residual Activity Frog (Frog (Rana pipiens) Skin [1]; [7]): p(-); Biological Potency Frog (Frog (Rana pipiens) Skin [1]; [8]): 1.0; Residual Activity Lizard [2, 7]: p(-); Biological Potency Lizard [2, 8]: 20.0"
CCCC[C@H](NC(C)=O)C(=O)N[C@H]1CC(=O)NCC[C@@H](C(N)=O)NC(=O)[C@H](Cc2c[nH]c3ccccc23)NC(=O)[C@H](CCCNC(=N)N)NC(=O)[C@@H](Cc2ccccc2)NC(=O)[C@H](Cc2c[nH]cn2)NC1=O [Analogue 19],,,,,"Residual Activity Frog (Frog (Rana pipiens) Skin [1]; [7]): p(-); Biological Potency Frog (Frog (Rana pipiens) Skin [1]; [8]): 1.0; Residual Activity Lizard [2, 7]: p(-); Biological Potency Lizard [2, 8]: 5.0"
CCCC[C@H](NC(C)=O)C(=O)N[C@H]1CC(=O)NC[C@@H](C(N)=O)NC(=O)[C@H](Cc2c[nH]c3ccccc23)NC(=O)[C@H](CCCNC(=N)N)NC(=O)[C@@H](Cc2ccccc2)NC(=O)[C@H](Cc2c[nH]cn2)NC1=O [Analogue 20],,,,,"Residual Activity Frog (Frog (Rana pipiens) Skin [1]; [7]): p(-); Biological Potency Frog (Frog (Rana pipiens) Skin [1]; [8]): 0.01; Residual Activity Lizard [2, 7]: p(-); Biological Potency Lizard [2, 8]: 5.0"
Ac-Met-Glu-His-Phe-Arg-Trp-Gly-NH₂ [Ac-alpha -MSH₄₋₁₀NH₂],,,,,"Relative Potency Frog (Frog (Rana pipiens) Skin [3]): 0.0003; melanocyte stimulating activity in frog skin (Frog (Rana pipiens) Skin [3]; result in words, compared to the native hormone): weak agonist; Relative Potency Lizard [4]: 0.004"
"Ac-[Nle⁴,D-Phe⁷]-alpha -MSH₁₋₁₃NH₂",,,,,Relative Potency Frog (Frog (Rana pipiens) Skin [3]): 60.0; Relative Potency Lizard [4]: 5.0
"Ac-[Nle⁴,D-Phe⁷]-alpha-MSH₄₋₁₀NH₂",,,,,Relative Potency Frog (Frog (Rana pipiens) Skin [3]): 0.02; Relative Potency Lizard [4]: 10.0
"Ac-[Nle⁴,D-Phe⁷]-alpha-MSH₄₋₁₁NH₂",,,,,Relative Potency Frog (Frog (Rana pipiens) Skin [3]): 0.16; Relative Potency Lizard [4]: 8.0
Ac-[Nle⁴]-alpha-MSH₄₋₁₀NH₂,,,,,Relative Potency Frog (Frog (Rana pipiens) Skin [3]): 0.002; Relative Potency Lizard [4]: 0.06
